Measured values reported in ChEMBL document CHEMBL4411304, “CDK8 as a therapeutic target for cancers and recent developments in discovery of CDK8 inhibitors” (Eur J Med Chem, 2019).
One block for each compound: values may come before it.

Tests used:
HT-29 = assay: Growth inhibition of CDK8 over-expressing human HT-29 cells by MTT assay; format: functional
CDK8/Cyclin C = CDK8/Cyclin C (Homo sapiens, UniProt P49336); assay: Inhibition of recombinant human full-length GST/His-fused CDK8/CycC expressed in Sf9 insect cells using RBER-IRStide as substrate after 1 hr in presence of [gamma33P-ATP] by microbeta scintillation counting method
CDK8/Cyclin C, sequence (P49336 whole entry, the tested form may be a part): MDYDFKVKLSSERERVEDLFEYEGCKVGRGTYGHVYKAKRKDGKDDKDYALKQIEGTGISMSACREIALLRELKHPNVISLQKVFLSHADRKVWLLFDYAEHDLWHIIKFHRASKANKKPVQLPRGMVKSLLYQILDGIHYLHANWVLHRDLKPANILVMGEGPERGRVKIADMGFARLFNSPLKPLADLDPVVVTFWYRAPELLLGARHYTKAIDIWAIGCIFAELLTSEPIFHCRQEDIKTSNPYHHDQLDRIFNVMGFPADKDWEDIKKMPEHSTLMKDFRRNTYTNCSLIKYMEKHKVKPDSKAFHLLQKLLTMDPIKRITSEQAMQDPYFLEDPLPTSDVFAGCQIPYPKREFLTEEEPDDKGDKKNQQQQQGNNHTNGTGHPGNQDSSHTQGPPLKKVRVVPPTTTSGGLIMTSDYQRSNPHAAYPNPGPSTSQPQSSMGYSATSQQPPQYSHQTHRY
CDK8/Cyclin C, sequence (P24863 whole entry, further chain, the tested form may be a part): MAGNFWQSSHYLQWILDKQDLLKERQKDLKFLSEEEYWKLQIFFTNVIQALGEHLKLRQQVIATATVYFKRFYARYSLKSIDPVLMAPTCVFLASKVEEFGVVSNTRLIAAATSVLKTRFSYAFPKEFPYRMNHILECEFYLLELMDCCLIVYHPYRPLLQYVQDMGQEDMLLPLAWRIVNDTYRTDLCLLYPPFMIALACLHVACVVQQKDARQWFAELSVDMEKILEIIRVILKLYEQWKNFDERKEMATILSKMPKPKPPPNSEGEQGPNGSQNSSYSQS

HCT-116 = assay: Growth inhibition of CDK8 over-expressing human HCT116 cells by MTT assay; format: functional
COLO 205 = assay: Growth inhibition of CDK8 over-expressing human COLO205 cells by MTT assay; format: functional
[1] = target: T1, Cyclin-dependent kinase 19 (Homo sapiens, UniProt Q9BWU1); assay: Binding affinity to wild-type partial length human CDK11 (M1 to N360 residues) expressed in bacterial expression system by Kinomescan assay
T1 sequence (Q9BWU1 whole entry, the tested form may be a part): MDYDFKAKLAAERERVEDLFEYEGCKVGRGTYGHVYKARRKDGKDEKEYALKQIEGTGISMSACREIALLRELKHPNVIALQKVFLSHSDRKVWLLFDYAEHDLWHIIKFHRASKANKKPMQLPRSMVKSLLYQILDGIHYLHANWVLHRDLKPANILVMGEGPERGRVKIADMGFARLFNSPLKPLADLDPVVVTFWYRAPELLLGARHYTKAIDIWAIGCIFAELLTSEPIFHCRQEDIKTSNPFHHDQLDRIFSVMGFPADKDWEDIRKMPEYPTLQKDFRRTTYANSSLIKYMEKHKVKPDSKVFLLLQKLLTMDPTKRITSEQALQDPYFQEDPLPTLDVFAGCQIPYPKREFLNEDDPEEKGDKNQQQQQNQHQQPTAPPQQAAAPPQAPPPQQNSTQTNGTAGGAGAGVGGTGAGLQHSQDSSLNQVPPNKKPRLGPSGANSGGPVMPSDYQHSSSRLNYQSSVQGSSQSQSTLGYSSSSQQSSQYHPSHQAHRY

[2] = target: Cyclin-dependent kinase 8 (Homo sapiens, UniProt P49336); assay: Binding affinity to wild-type partial length human CDK8 (M1 to T360 residues) expressed in bacterial expression system by Kinomescan assay
Cyclin-dependent kinase 8, sequence (P49336 whole entry, the tested form may be a part): as the sequence (P49336 whole entry, the tested form may be a part) above

[3] = target: T1, Cyclin-dependent kinase 19; assay: Inhibition of wild-type partial length human CDK11 (M1 to N360 residues) expressed in bacterial expression system at 300 nM by Kinomescan assay
[4] = target: cAMP-dependent protein kinase catalytic subunit alpha (Homo sapiens, UniProt P17612); assay: Binding affinity to wild-type partial length human PKACalpha (G10 to F351 residues) expressed in bacterial expression system by Kinomescan assay
[5] = target: Rho-associated protein kinase 1 (Homo sapiens, UniProt Q13464); assay: Binding affinity to wild-type partial length human ROCK1 (M1 to R415 residues) expressed in mammalian expression system by Kinomescan assay
Rho-associated protein kinase 1, sequence (Q13464 whole entry, the tested form may be a part): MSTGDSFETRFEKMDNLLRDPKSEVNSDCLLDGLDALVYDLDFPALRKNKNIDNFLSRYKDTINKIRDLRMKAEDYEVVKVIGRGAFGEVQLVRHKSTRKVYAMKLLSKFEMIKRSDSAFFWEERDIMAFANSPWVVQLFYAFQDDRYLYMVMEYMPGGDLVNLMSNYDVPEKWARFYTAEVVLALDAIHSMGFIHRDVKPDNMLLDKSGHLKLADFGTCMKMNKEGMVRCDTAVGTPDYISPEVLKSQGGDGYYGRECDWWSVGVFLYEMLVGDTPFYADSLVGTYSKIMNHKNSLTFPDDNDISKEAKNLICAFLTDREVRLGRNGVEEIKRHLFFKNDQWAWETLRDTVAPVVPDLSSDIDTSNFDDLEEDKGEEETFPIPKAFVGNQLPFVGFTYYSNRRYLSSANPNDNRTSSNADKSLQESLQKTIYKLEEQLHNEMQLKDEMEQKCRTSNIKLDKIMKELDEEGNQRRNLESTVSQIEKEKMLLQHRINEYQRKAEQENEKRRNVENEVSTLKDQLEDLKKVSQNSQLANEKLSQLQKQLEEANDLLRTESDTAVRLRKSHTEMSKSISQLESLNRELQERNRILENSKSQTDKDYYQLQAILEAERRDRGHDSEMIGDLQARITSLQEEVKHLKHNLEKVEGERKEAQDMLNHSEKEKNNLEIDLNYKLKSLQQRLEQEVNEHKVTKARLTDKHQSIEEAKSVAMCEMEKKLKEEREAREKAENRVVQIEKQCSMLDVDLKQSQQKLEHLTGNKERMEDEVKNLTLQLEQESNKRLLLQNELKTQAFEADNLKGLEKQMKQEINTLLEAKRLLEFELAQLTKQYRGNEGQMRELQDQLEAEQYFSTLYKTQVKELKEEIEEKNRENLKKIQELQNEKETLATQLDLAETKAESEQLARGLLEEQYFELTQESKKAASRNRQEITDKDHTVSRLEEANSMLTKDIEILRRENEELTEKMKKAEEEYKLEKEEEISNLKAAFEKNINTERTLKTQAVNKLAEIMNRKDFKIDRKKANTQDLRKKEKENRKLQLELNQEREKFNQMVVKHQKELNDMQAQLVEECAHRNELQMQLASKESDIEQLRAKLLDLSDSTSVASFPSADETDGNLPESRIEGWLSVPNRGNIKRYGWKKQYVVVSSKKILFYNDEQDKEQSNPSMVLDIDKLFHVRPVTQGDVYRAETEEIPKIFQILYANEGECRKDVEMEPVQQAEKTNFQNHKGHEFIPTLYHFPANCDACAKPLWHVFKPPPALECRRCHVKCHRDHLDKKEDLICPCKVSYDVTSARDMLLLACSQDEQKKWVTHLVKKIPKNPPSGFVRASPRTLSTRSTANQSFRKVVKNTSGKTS

HUVEC = assay: Antiproliferative activity against VEGF-stimulated HUVEC; format: functional, cell-based; conditions: Homo sapiens
[6] = Selectivity index, ratio of IC50 for NHDF cells to IC50 for VEGF-stimulated HUVEC; set-up: species or system Homo sapiens
[7] = target: Rho-associated protein kinase 2 (Homo sapiens, UniProt O75116); assay: Binding affinity to wild-type partial length human ROCK2 (M1 to T431 residues) expressed in mammalian expression system by Kinomescan assay
Rho-associated protein kinase 2, sequence (O75116 whole entry, the tested form may be a part): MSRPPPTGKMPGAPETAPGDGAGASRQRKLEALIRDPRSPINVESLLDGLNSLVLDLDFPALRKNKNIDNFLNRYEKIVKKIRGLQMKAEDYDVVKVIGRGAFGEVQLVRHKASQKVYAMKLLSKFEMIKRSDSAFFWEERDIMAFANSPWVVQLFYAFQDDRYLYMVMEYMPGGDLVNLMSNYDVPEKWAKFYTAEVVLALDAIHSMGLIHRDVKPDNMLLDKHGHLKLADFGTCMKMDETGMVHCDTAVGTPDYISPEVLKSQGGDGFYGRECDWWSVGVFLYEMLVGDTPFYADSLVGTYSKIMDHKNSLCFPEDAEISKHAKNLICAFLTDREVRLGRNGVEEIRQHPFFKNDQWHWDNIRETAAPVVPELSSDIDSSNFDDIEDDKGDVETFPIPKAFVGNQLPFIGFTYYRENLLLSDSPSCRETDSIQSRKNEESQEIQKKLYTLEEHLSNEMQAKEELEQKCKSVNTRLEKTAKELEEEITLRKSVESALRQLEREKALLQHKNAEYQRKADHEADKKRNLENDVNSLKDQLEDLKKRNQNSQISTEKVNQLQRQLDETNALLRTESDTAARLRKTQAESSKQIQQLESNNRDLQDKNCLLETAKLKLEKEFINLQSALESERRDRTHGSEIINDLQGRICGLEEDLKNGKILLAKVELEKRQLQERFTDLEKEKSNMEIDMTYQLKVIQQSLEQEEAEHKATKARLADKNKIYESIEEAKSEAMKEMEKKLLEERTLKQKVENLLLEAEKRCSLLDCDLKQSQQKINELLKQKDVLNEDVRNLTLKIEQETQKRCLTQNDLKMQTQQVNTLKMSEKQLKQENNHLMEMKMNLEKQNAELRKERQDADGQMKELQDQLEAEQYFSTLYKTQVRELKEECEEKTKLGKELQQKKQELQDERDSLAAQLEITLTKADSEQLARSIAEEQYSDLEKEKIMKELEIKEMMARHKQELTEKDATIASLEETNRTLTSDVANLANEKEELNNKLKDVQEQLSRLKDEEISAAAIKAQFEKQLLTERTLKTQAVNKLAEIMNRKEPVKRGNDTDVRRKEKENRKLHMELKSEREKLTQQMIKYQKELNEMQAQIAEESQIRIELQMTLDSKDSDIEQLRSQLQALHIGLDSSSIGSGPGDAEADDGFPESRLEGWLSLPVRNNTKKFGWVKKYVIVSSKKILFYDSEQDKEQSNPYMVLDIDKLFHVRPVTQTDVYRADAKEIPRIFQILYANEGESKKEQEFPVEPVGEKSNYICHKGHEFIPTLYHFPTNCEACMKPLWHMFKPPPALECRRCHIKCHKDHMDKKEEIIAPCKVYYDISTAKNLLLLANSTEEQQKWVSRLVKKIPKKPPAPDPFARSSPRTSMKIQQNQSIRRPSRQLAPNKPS

NHDF = assay: Cytotoxicity against NHDF cells; format: cell-based; conditions: Homo sapiens
[8] = target: Cyclin-C/Cyclin-dependent kinase 19 (Homo sapiens, UniProt Q9BWU1); assay: Inhibition of recombinant human GST/His-tagged CDK11 (1 to 502 residues)/cyclinC (1 to 283 residues) catalytic domain expressed in insect cells by Lantha screen eu binding assay
Cyclin-C/Cyclin-dependent kinase 19, sequence (Q9BWU1 whole entry, the tested form may be a part): as the sequence (Q9BWU1 whole entry, the tested form may be a part) above
Cyclin-C/Cyclin-dependent kinase 19, sequence (P24863 whole entry, further chain, the tested form may be a part): as the sequence (P24863 whole entry, further chain, the tested form may be a part) above

[9] = target: T2, Serine/threonine-protein kinase haspin (Homo sapiens) (UniProt Q8TF76); assay: Inhibition of wild-type human partial length HASPIN (I452 to K798 residues) expressed in mammalian expression system at 300 nM by Kinomescan method relative to control
T2 sequence (whole entry): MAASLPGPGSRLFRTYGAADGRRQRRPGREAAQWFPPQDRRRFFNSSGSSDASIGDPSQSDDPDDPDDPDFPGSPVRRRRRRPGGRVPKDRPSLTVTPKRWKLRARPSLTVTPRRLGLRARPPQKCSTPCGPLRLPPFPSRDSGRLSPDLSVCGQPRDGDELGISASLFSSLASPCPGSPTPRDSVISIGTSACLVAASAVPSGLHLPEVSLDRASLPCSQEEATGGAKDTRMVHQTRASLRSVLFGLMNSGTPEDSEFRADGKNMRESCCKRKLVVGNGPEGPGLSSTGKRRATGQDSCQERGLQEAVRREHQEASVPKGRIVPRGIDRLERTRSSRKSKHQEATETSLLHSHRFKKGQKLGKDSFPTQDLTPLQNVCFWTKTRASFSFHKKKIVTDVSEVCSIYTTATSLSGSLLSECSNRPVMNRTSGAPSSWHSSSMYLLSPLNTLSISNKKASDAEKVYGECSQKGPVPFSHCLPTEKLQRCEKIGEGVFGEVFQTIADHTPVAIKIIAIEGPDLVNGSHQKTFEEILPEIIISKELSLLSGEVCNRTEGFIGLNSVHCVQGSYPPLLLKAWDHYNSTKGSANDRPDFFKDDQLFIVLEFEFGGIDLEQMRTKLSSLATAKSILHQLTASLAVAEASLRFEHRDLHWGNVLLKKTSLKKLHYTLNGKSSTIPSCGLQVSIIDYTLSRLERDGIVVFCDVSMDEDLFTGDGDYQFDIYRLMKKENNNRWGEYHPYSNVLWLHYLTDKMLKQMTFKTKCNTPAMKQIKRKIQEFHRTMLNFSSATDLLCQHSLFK

Compound: Cc1ccc(NC(=O)Nc2ccc(Cc3ccncc3)cc2)cc1C
GI50 (HT-29): 6.43 to 11.3 µM | IC50 (CDK8/Cyclin C): 0.018 µM | GI50 (HCT-116): 6.43 to 11.3 µM | GI50 (COLO 205): 6.43 to 11.3 µM

Compound: O=C(/C=C/c1cnccc1-c1ccc(F)cc1)Nc1ccc(CCc2nnco2)cc1
inhibition [3]: 94%

Compound: CN(C)[C@H]1C[C@@]23CC[C@@]4(O2)C(=CC[C@]2(C)[C@@H](c5ccc6ccncc6c5)CC[C@H]24)C=C3[C@@H](O)[C@@H]1O
Kd [1]: 0.01 µM | Kd [4]: 3.5 µM | Kd [5]: 0.25 µM | IC50 (HUVEC): 0.0018 µM | Ratio IC50 [6]: 3300 | Kd [2]: 0.017 µM | Kd [7]: 0.22 µM | IC50 (NHDF): 6 µM

Compound: Fc1ccc2nccc(Nc3ccccc3F)c2c1
GI50 (HT-29): 6.43 to 11.3 µM | IC50 (CDK8/Cyclin C): 0.386 µM | GI50 (HCT-116): 6.43 to 11.3 µM | GI50 (COLO 205): 6.43 to 11.3 µM

Compound: Cc1ccc(NC(=O)Nc2nnc(-c3cccc(F)c3)s2)cc1C
GI50 (HT-29): 6.43 to 11.3 µM | IC50 (CDK8/Cyclin C): 0.047 µM | GI50 (HCT-116): 6.43 to 11.3 µM | GI50 (COLO 205): 6.43 to 11.3 µM

Next, values leading:

Kd [1]: 0.31 µM | Kd [2]: 0.83 µM
Compound: N#Cc1ccc2ncnc(NCCc3ccccc3)c2c1

IC50 [8]: > 30 µM
Compound: CC1CCc2nc(N)c(C#N)c(-c3cccnc3)c2C1 (stereo unspecified)

inhibition [3]: 99% | inhibition [9]: 99%
Compound: Cc1ncccc1Oc1sc(C(N)=O)c2c1-c1c(cnn1C)CC2
